Assays:
[1] = system: Cotton Aphid (Aphis gossypii); assay: Cotton aphid (Aphis gossypii) cotyledon dip test, mortality; assay type: in vivo; conditions: 120 h, cotton cotyledons dipped, mortality counts after 5 days, read-out: mortality in comparison with untreated controls
Description: B.1 Cotton Aphid (Aphis gossypii)
(§1) The active compounds were formulated in 50:50 acetone:water and 100 ppm Kinetic® surfactant.
Cotton plants at the cotyledon stage (one plant per pot) were infested by placing a heavily infested leaf from the main colony on top of each cotyledon. The aphids were allowed to transfer to the host plant overnight, and the leaf used to transfer the aphids was removed. The cotyledons were dipped in the test solution and allowed to dry. After 5 days, mortality counts were made.

[2] = system: Green Peach Aphid (Myzus Persicae); assay: Green peach aphid (Myzus persicae) pepper leaf dip test, mortality; assay type: in vivo; conditions: foliar, 120 h, pepper plant leaves dipped, aphid mortality after 5 days, read-out: mortality in comparison with untreated controls
Description: B.2 Green Peach Aphid (Myzus Persicae)
as §1
Pepper plants in the 2nd leaf-pair stage (variety ‘California Wonder’) were infested with approximately 40 laboratory-reared aphids by placing infested leaf sections on top of the test plants. The leaf sections were removed after 24 hr. The leaves of the intact plants were dipped into gradient solutions of the test compound and allowed to dry. Test plants were maintained under fluorescent light (24 hour photoperiod) at about 25° C. and 20-40% relative humidity. Aphid mortality on the treated plants, relative to mortality on check plants, was determined after 5 days.

Structure (SMILES)	mortality at 300 ppm [1] [%]	mortality at 300 ppm [2] [%]
CC(C)CN(C)c1nsc2cccc(Cl)c12 [Compound 44]	> 86	–
CCCN(C)c1nsc2cccc(Cl)c12 [Compound 87]	> 86	> 86
CC(C)N(C)c1nsc2cccc(Cl)c12 [Compound 86]	> 86	> 86
CN(C)c1n[s+]([O-])c2cccc(Cl)c12 (stereo not shown) [Compound 78]	> 86	> 86
CON(C)C1=NS(=O)(=O)c2cccc(F)c21 [Compound 100]	> 86	–
CCCN(C)C1=NS(=O)(=O)c2cccc(F)c21 [Compound 68]	> 86	–
COc1cccc2c1C(N(C(C)C)C1CC1)=NS2(=O)=O [Compound 55]	> 86	–
C=CCN(C)C1=NS(=O)(=O)c2cccc(OC(F)F)c21 [Compound 40]	> 86	> 86
CCCN(C)C1=NS(=O)(=O)c2cccc(OC(F)F)c21 [Compound 38]	> 86	> 86
CCN(C)c1nsc2cccc(F)c12 [Compound 79]	> 86	–
CCN(C)C1=NS(=O)(=O)c2c(F)ccc(OC)c21 [Compound 91]	> 86	> 86
COC(C)CN(C)c1nsc2cccc(Cl)c12 (stereo not shown) [Compound 57]	> 86	> 86
C#CCN(OCC)C1=NS(=O)(=O)c2cccc(Cl)c21 [Compound 107]	> 86	–
CCON(C)C1=NS(=O)(=O)c2cccc(OC(F)F)c21 [Compound 110]	> 86	> 86
CCN(CC)c1nsc2cccc(OC)c12 [Compound 76]	> 86	> 86
C#CCON(C1=NS(=O)(=O)c2cccc(Cl)c21)C(C)C [Compound 105]	> 86	–
CCN(C)C1=NS(=O)(=O)c2cccc(F)c21 [Compound 64]	> 86	> 86
CCN(C)c1nsc2cccc(OC)c12 [Compound 81]	> 86	> 86
COc1ccc(F)c2c1C(N(C)OC)=NS2(=O)=O [Compound 108]	> 86	> 86
C#CC(C)N(C1=NS(=O)(=O)c2cccc(Cl)c21)C(C)C (stereo not shown) [Compound 14]	> 86	–
COc1ccc(F)c2c1C(N(C)C)=NS2(=O)=O [Compound 90]	> 86	–
CCN(C1=NS(=O)(=O)c2cccc(OC)c21)C(C)C [Compound 28]	> 86	> 86
CCN(CC)c1n[s+]([O-])c2cccc(Cl)c12 (stereo not shown) [Compound 74]	> 86	> 86
COc1ccc(F)c2c1C(N(C)CC#N)=NS2(=O)=O [Compound 96]	> 86	> 86
CC(C)N(C)C1=NS(=O)(=O)c2cccc(F)c21 [Compound 73]	> 86	> 86
CC(C)N(C1=NS(=O)(=O)c2cccc(OC(F)F)c21)C1CC1 [Compound 35]	> 86	–

Structure (SMILES)	mortality at 300 ppm [1] [%]	mortality at 300 ppm [2] [%]
CN(C)C1=NS(=O)(=O)c2cccc(OC(F)F)c21 [Compound 32]	> 86	> 86
CCN(C)c1nsc2cccc(Cl)c12 [Compound 51]	> 86	> 86
CC(C)ON(C1=NS(=O)(=O)c2cccc(Cl)c21)C(C)C [Compound 101]	> 86	–
COc1cccc2c1c(N(C)C)n[s+]2[O-] (stereo not shown) [Compound 94]	> 86	> 86
CC(C)N(C)C1=NS(=O)(=O)c2cccc(Cl)c21 [Compound 52]	> 86	–
CCN(C)C1=NS(=O)(=O)c2cccc(OC(F)F)c21 [Compound 34]	> 86	> 86
CC(C)ON(C)C1=NS(=O)(=O)c2cccc(Cl)c21 [Compound 102]	> 86	–
CCN(C)c1nsc2ccc(I)c(Cl)c12 [Compound 60]	> 86	–
CC(C)N(C)C1=NS(=O)(=O)c2cccc(OC(F)F)c21 [Compound 41]	> 86	> 86
CCCN(CCC)C1=NS(=O)(=O)c2cccc(F)c21 [Compound 67]	> 86	–
CCN(C)c1n[s+]([O-])c2cccc(OC)c12 (stereo not shown) [Compound 85]	> 86	> 86
CN(CC#N)C1=NS(=O)(=O)c2cccc(OC(F)F)c21 [Compound 37]	> 86	> 86
CC(C)N(C1=NS(=O)(=O)c2cccc(F)c21)C1CC1 [Compound 71]	> 86	–
CCCN(C)C1=NS(=O)(=O)c2cccc(Cl)c21 [Compound 19]	> 86	> 86
CC(C)CN(C)c1n[s+]([O-])c2cccc(Cl)c12 (stereo not shown) [Compound 77]	> 86	–
CCON(CC)C1=NS(=O)(=O)c2cccc(OC(F)F)c21 [Compound 112]	> 86	> 86
CCON(C1=NS(=O)(=O)c2cccc(OC(F)F)c21)C(C)C [Compound 111]	> 86	> 86
C#CCON(C)C1=NS(=O)(=O)c2cccc(Cl)c21 [Compound 103]	> 86	–
CN(CC(F)(F)F)C1=NS(=O)(=O)c2cccc(OC(F)F)c21 [Compound 53]	> 86	> 86
CCN(CC)C1=NS(=O)(=O)c2cccc(OC(F)F)c21 [Compound 31, (4-Difluoromethoxy-1,1-dioxo-1H-1λ^6-benzo[d]isothiazol-3-yl)-diethyl-amine]	> 86	> 86
CCN(CC)c1nsc2ccc(I)c(Cl)c12 [Compound 61]	> 86	–
CCN(CC)C1=NS(=O)(=O)c2c(F)ccc(OC)c21 [Compound 89]	> 86	> 86
O=S1(=O)N=C(N2CCCC2)c2c(Cl)cccc21 [Compound 1]	> 86	–
C#CCN(C)C1=NS(=O)(=O)c2cccc(OC(F)F)c21 [Compound 39]	> 86	> 86
COC(C)CN(C)C1=NS(=O)(=O)c2cccc(Cl)c21 (stereo not shown) [Compound 18]	> 86	–
COC(CN(C)C1=NS(=O)(=O)c2cccc(Cl)c21)OC [Compound 17]	> 86	–

Structure (SMILES)	mortality at 300 ppm [1] [%]	mortality at 300 ppm [2] [%]
CN(CC(F)(F)F)C1=NS(=O)(=O)c2cccc(Cl)c21 [Compound 56]	> 86	–
CCN(CC)c1n[s+]([O-])c2cccc(OC)c12 (stereo not shown) [Compound 95]	> 86	> 86
CC(C)N(O)C1=NS(=O)(=O)c2cccc(Cl)c21 [Compound 98]	> 86	> 86
CCN(CC)c1nsc2cccc(Cl)c12 [Compound 58]	> 86	> 86
O=S1(=O)N=C(N(O)Cc2ccccc2)c2c(Cl)cccc21 [Compound 104]	> 86	–
CN(c1nsc2cccc(Cl)c12)C1CCCC1 [Compound 93]	> 86	> 86
COc1cccc2c1c(N(C)CC(C)C)n[s+]2[O-] (stereo not shown) [Compound 84]	> 86	–
COC(OC)C(C)N(C)C1=NS(=O)(=O)c2cccc(Cl)c21 (stereo not shown) [Compound 16]	> 86	–
C#CCN(C)C1=NS(=O)(=O)c2cccc(F)c21 [Compound 66]	> 86	–
COc1cccc2c1C(N(C)C)=NS2(=O)=O [Compound 54]	> 86	–
C=CCN(C)C1=NS(=O)(=O)c2cccc(F)c21 [Compound 69]	> 86	–
C#CCN(C1=NS(=O)(=O)c2cccc(OC)c21)C(C)C [Compound 29]	> 86	–
COc1cccc2c1C(N1CCOCC1)=NS2(=O)=O [Compound 26]	> 86	–
C#CCN(C)C1=NS(=O)(=O)c2cccc(Cl)c21 [Compound 21]	> 86	–
C=CCN(C)C1=NS(=O)(=O)c2cccc(Cl)c21 [Compound 20]	> 86	–
CCON(CC)C1=NS(=O)(=O)c2cccc(Cl)c21 [Compound 106]	> 86	–
CC(C)CN(C)C1=NS(=O)(=O)c2cccc(F)c21 [Compound 70]	> 86	–
CCN(CC(F)(F)F)C1=NS(=O)(=O)c2cccc(Cl)c21 [Compound 13]	> 86	–
C=CCN(CC=C)C1=NS(=O)(=O)c2cccc(Cl)c21 [Compound 10]	> 86	–
COC(CN(C)c1nsc2cccc(Cl)c12)OC [Compound 46]	> 86	–
CC(C)CN(C)C1=NS(=O)(=O)c2cccc(Cl)c21 [Compound 22, (4-Chloro-1,1-dioxo-1H-1λ^6-benzo[d]isothiazol-3-yl)-isobutyl-methyl-amine]	> 86	–
CN(C)C1=NS(=O)(=O)c2cccc(F)c21 [Compound 63]	> 86	–
CCN(CC)C1=NS(=O)(=O)c2cccc(F)c21 [Compound 65]	> 86	–
CCC(C)N(O)C1=NS(=O)(=O)c2cccc(Cl)c21 (stereo not shown) [Compound 99]	> 86	–
C#CCN(C1=NS(=O)(=O)c2cccc(F)c21)C(C)C [Compound 72]	> 86	–
C=CCN(C)c1nsc2cccc(Cl)c12 [Compound 45]	> 86	–
